# Reference: PubChem BioAssay (NCI)
#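 Briefly, cells in 96-well plates were exposed to five compound concentrations for 48 h, and endpoints were estimated by linear interpolation. The concentration for full growth arrest is given as TGI.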
# Columns and labels:
# Experiment in all cases: growth of human tumour cells (NCI), 48 h
# [1] = tested on: ACHN renal
# [2] = tested on: RPMI-8226 leukemia
# [3] = tested on: HT29 colon
# [4] = tested on: SK-MEL-5 melanoma
# [5] = tested on: A498 renal
# [6] = tested on: UACC-257 melanoma
# [7] = tested on: HOP-62 NSCLC
# [8] = tested on: HOP-18 NSCLC
# [9] = tested on: NCI-H23 lung
# [10] = tested on: LXFL 529 NSCLC
# [11] = tested on: KM20L2 colon
# [12] = tested on: SNB-78 CNS
# [13] = tested on: NCI-H226 lung
# [14] = tested on: K-562 leukemia
# [15] = tested on: RXF 393 renal
# [16] = tested on: UACC-62 melanoma
# [17] = tested on: SF-539 CNS
# [18] = tested on: UO-31 renal
# [19] = tested on: SN12C renal
# [20] = tested on: M14 melanoma
# [21] = tested on: SK-MEL-28 melanoma
# [22] = tested on: DLD-1 colon
# [23] = tested on: OVCAR-4 ovarian
# [24] = tested on: U251 CNS
# [25] = tested on: SF-295 CNS
# [26] = tested on: COLO 205 colon
# [27] = tested on: DMS 273 small cell lung
# [28] = tested on: CCRF-CEM leukemia
# [29] = tested on: MALME-3M melanoma
# [30] = tested on: NCI-H522 lung
# [31] = tested on: IGROV1 ovarian
# [32] = tested on: DMS 114 small cell lung
# [33] = tested on: SF-268 CNS
# [34] = tested on: XF 498 CNS
# [35] = tested on: KM12 colon
# [36] = tested on: SNB-19 CNS
# [37] = tested on: HCT-15 colon
# [38] = tested on: M19-MEL melanoma
# [39] = tested on: EKVX NSCLC
# [40] = tested on: 786-0 renal
# [41] = tested on: CAKI-1 renal
# [42] = tested on: HL-60(TB) leukemia
# [43] = tested on: NCI-H460 lung
# [44] = tested on: A549 NSCLC
# [45] = tested on: SNB-75 CNS
# [46] = tested on: TK-10 renal
# [47] = tested on: MOLT-4 leukemia
# [48] = tested on: OVCAR-3 ovarian
# [49] = tested on: OVCAR-5 ovarian
# [50] = tested on: HOP-92 NSCLC
# [51] = tested on: SW-620 colon
# [52] = tested on: HCT-116 colon
# [53] = tested on: OVCAR-8 ovarian
# [54] = tested on: LOX IMVI melanoma
# [55] = tested on: HCC-2998 colon
# [56] = tested on: SR leukemia
# [57] = tested on: SK-OV-3 ovarian
# [58] = tested on: SK-MEL-2 melanoma
smiles,measurement,setting,value
COc1cc(/C=C/c2cccnc2)cc(OC)c1OC,TGI,[1],> 100 µM
same,TGI,[2],> 100 µM
same,TGI,[3],> 100 µM
same,TGI,[4],> 100 µM
same,TGI,[5],> 100 µM
same,TGI,[6],> 100 µM
same,TGI,[7],> 100 µM
same,TGI,[8],> 100 µM
same,TGI,[9],> 100 µM
same,TGI,[10],> 100 µM
same,TGI,[11],> 100 µM
same,TGI,[12],> 100 µM
same,TGI,[13],> 100 µM
same,TGI,[14],> 100 µM
same,TGI,[15],> 100 µM
same,TGI,[16],> 100 µM
same,TGI,[17],> 100 µM
same,TGI,[18],> 100 µM
same,TGI,[19],> 100 µM
same,TGI,[20],> 100 µM
same,TGI,[21],> 100 µM
same,TGI,[22],> 100 µM
same,TGI,[23],> 100 µM
same,TGI,[24],> 100 µM
same,TGI,[25],> 100 µM
same,TGI,[26],> 100 µM
same,TGI,[27],> 100 µM
same,TGI,[28],> 100 µM
same,TGI,[29],> 100 µM
same,TGI,[30],> 100 µM
same,TGI,[31],> 100 µM
same,TGI,[32],> 100 µM
same,TGI,[33],> 100 µM
same,TGI,[34],> 100 µM
same,TGI,[35],> 100 µM
same,TGI,[36],> 100 µM
same,TGI,[37],> 100 µM
same,TGI,[38],> 100 µM
same,TGI,[39],> 100 µM
same,TGI,[40],> 100 µM
same,TGI,[41],> 100 µM
same,TGI,[42],> 100 µM
same,TGI,[43],> 100 µM
same,TGI,[44],> 100 µM
same,TGI,[45],> 100 µM
same,TGI,[46],> 100 µM
same,TGI,[47],> 100 µM
same,TGI,[48],> 100 µM
same,TGI,[49],> 100 µM
same,TGI,[50],> 100 µM
same,TGI,[51],> 100 µM
same,TGI,[52],> 100 µM
same,TGI,[53],> 100 µM
same,TGI,[54],> 100 µM
Cn1cnc([N+](=O)[O-])c1Sc1nc2ncccc2[nH]1,TGI,[1],> 100 µM
same,TGI,[2],> 100 µM
same,TGI,[3],> 100 µM
same,TGI,[4],> 100 µM
same,TGI,[5],> 100 µM
same,TGI,[6],> 100 µM
same,TGI,[7],> 100 µM
same,TGI,[8],> 100 µM
same,TGI,[9],> 100 µM
same,TGI,[10],> 100 µM
same,TGI,[11],> 100 µM
same,TGI,[12],> 100 µM
same,TGI,[55],> 100 µM
same,TGI,[13],> 100 µM
same,TGI,[14],> 100 µM
same,TGI,[15],> 100 µM
same,TGI,[56],> 100 µM
same,TGI,[16],> 100 µM
same,TGI,[17],> 100 µM
same,TGI,[18],> 100 µM
same,TGI,[19],> 100 µM
same,TGI,[20],> 100 µM
same,TGI,[21],> 100 µM
same,TGI,[22],> 100 µM
same,TGI,[23],> 100 µM
same,TGI,[24],> 100 µM
same,TGI,[25],> 100 µM
same,TGI,[26],56.5 µM
same,TGI,[28],64.2 µM
same,TGI,[29],> 100 µM
same,TGI,[31],> 100 µM
same,TGI,[32],74.4 µM
same,TGI,[33],> 100 µM
same,TGI,[34],> 100 µM
same,TGI,[35],> 100 µM
same,TGI,[36],> 100 µM
same,TGI,[37],> 100 µM
same,TGI,[39],> 100 µM
same,TGI,[40],> 100 µM
same,TGI,[41],85.6 µM
same,TGI,[42],62.6 µM
same,TGI,[43],> 100 µM
same,TGI,[44],> 100 µM
same,TGI,[45],> 100 µM
same,TGI,[46],> 100 µM
same,TGI,[57],> 100 µM
same,TGI,[47],> 100 µM
same,TGI,[48],> 100 µM
same,TGI,[49],> 100 µM
same,TGI,[50],> 100 µM
same,TGI,[51],> 100 µM
same,TGI,[52],> 100 µM
same,TGI,[53],> 100 µM
same,TGI,[54],> 100 µM
Cc1nc(C(N)=S)sc1C(=O)CC(=O)C(=O)Nc1c(C(C)C)cccc1C(C)C,TGI,[1],> 100 µM
same,TGI,[2],> 100 µM
same,TGI,[3],> 100 µM
same,TGI,[4],> 100 µM
same,TGI,[5],> 100 µM
same,TGI,[6],> 100 µM
same,TGI,[7],> 100 µM
same,TGI,[8],> 100 µM
same,TGI,[9],88.9 µM
same,TGI,[10],> 100 µM
same,TGI,[11],> 100 µM
same,TGI,[12],> 100 µM
same,TGI,[55],> 100 µM
same,TGI,[13],> 100 µM
same,TGI,[14],> 100 µM
same,TGI,[15],> 100 µM
same,TGI,[56],> 100 µM
same,TGI,[16],> 100 µM
same,TGI,[17],86.3 µM
same,TGI,[18],> 100 µM
same,TGI,[19],> 100 µM
same,TGI,[20],> 100 µM
same,TGI,[21],> 100 µM
same,TGI,[22],> 100 µM
same,TGI,[23],> 100 µM
same,TGI,[24],> 100 µM
same,TGI,[25],85.4 µM
same,TGI,[26],> 100 µM
same,TGI,[28],> 100 µM
same,TGI,[29],> 100 µM
same,TGI,[30],46.9 µM
same,TGI,[31],> 100 µM
same,TGI,[32],64.6 µM
same,TGI,[33],> 100 µM
same,TGI,[34],48.8 µM
same,TGI,[35],> 100 µM
same,TGI,[36],> 100 µM
same,TGI,[37],> 100 µM
same,TGI,[38],> 100 µM
same,TGI,[39],> 100 µM
same,TGI,[40],> 100 µM
same,TGI,[41],> 100 µM
same,TGI,[42],> 100 µM
same,TGI,[43],> 100 µM
same,TGI,[44],> 100 µM
same,TGI,[45],71.7 µM
same,TGI,[46],> 100 µM
same,TGI,[57],> 100 µM
same,TGI,[47],> 100 µM
same,TGI,[58],> 100 µM
same,TGI,[48],42 µM
same,TGI,[49],> 100 µM
same,TGI,[50],92.9 µM
same,TGI,[51],> 100 µM
same,TGI,[52],> 100 µM
same,TGI,[53],> 100 µM
same,TGI,[54],> 100 µM
CN(C(=O)c1cccs1)C(=S)N1CCN(c2ccccn2)CC1,TGI,[1],> 100 µM
same,TGI,[2],> 100 µM
same,TGI,[3],> 100 µM
same,TGI,[4],> 100 µM
same,TGI,[6],> 100 µM
same,TGI,[7],> 100 µM
same,TGI,[8],> 100 µM
same,TGI,[9],> 100 µM
same,TGI,[10],> 100 µM
same,TGI,[11],> 100 µM
same,TGI,[12],> 100 µM
same,TGI,[13],> 100 µM
same,TGI,[14],> 100 µM
same,TGI,[15],> 100 µM
same,TGI,[16],> 100 µM
same,TGI,[17],> 100 µM
same,TGI,[18],> 100 µM
same,TGI,[19],> 100 µM
same,TGI,[20],> 100 µM
same,TGI,[21],> 100 µM
same,TGI,[22],> 100 µM
same,TGI,[23],> 100 µM
same,TGI,[24],> 100 µM
same,TGI,[25],> 100 µM
same,TGI,[26],> 100 µM
same,TGI,[27],> 100 µM
same,TGI,[28],> 100 µM
same,TGI,[29],> 100 µM
same,TGI,[30],> 100 µM
same,TGI,[31],> 100 µM
same,TGI,[32],> 100 µM
same,TGI,[33],> 100 µM
same,TGI,[34],> 100 µM
same,TGI,[35],> 100 µM
same,TGI,[36],> 100 µM
same,TGI,[37],> 100 µM
same,TGI,[38],> 100 µM
same,TGI,[40],> 100 µM
same,TGI,[41],> 100 µM
same,TGI,[42],> 100 µM
same,TGI,[43],> 100 µM
same,TGI,[44],> 100 µM
same,TGI,[45],> 100 µM
same,TGI,[46],> 100 µM
same,TGI,[57],> 100 µM
same,TGI,[47],> 100 µM
same,TGI,[58],> 100 µM
same,TGI,[48],> 100 µM
same,TGI,[49],> 100 µM
same,TGI,[50],> 100 µM
same,TGI,[51],> 100 µM
same,TGI,[52],> 100 µM
same,TGI,[53],> 100 µM
same,TGI,[54],> 100 µM
COC(=O)C1CCC(=O)C(Sc2ccccc2)C1 (stereo unspecified),TGI,[1],> 100 µM
same,TGI,[2],> 100 µM
same,TGI,[3],> 100 µM
same,TGI,[4],> 100 µM
same,TGI,[5],> 100 µM
same,TGI,[6],> 100 µM
same,TGI,[8],> 100 µM
same,TGI,[9],> 100 µM
same,TGI,[10],> 100 µM
same,TGI,[11],> 100 µM
same,TGI,[12],> 100 µM
same,TGI,[13],> 100 µM
same,TGI,[14],> 100 µM
same,TGI,[15],> 100 µM
same,TGI,[16],> 100 µM
same,TGI,[17],> 100 µM
same,TGI,[18],99 µM
same,TGI,[19],> 100 µM
same,TGI,[20],> 100 µM
same,TGI,[21],> 100 µM
same,TGI,[22],> 100 µM
same,TGI,[23],> 100 µM
same,TGI,[24],> 100 µM
same,TGI,[25],> 100 µM
same,TGI,[26],> 100 µM
same,TGI,[27],> 100 µM
same,TGI,[28],80 µM
same,TGI,[30],> 100 µM
same,TGI,[31],> 100 µM
same,TGI,[32],> 100 µM
same,TGI,[33],> 100 µM
same,TGI,[34],> 100 µM
same,TGI,[35],> 100 µM
same,TGI,[36],> 100 µM
same,TGI,[37],> 100 µM
same,TGI,[38],> 100 µM
same,TGI,[39],> 100 µM
same,TGI,[41],> 100 µM
same,TGI,[42],> 100 µM
same,TGI,[43],> 100 µM
same,TGI,[44],> 100 µM
same,TGI,[45],96.4 µM
same,TGI,[46],> 100 µM
same,TGI,[57],> 100 µM
same,TGI,[47],> 100 µM
same,TGI,[48],> 100 µM
same,TGI,[49],> 100 µM
same,TGI,[50],> 100 µM
same,TGI,[51],> 100 µM
same,TGI,[52],> 100 µM
same,TGI,[53],> 100 µM
same,TGI,[54],> 100 µM
